Source: patent US20250144067A1, “PERSONALIZED STARVATION THERAPY FOR CANCER” (Faeth Therapeutics, Inc., priority 2021, published 2025)
Where a name gives a salt, the structure may show the parent alone. Read-outs that look alike come from different tables or passages of the source.

Key:
[1] = system: NCI-H292 lung cancer cells; assay: FDA drug screening, complete media vs cholesterol-free media without statin (TABLE 1); type: cell-based, human
[2] = system: NCI-H292 lung cancer cells; assay: FDA drug screening, complete media vs cholesterol-free media with simvastatin (TABLE 2); type: cell-based, human
[3] = NCI-H292 cells, cholesterol-free media without statin, FDA drug library screen
[4] = NCI-H292 cells, complete media, FDA drug library screen
[5] = complete vs cholesterol-free media, >0 enhanced anti-cancer activity, about 0 neutral, <0 antagonist
[6] = Complete minus Cholesterol-free, greater than 0 enhanced anti-cancer activity, about 0 neutral, below 0 antagonist
[7] = NCI-H292 cells, FDA drug library screen, cholesterol-free media without statin
[8] = NCI-H292 cells, FDA drug library screen, complete media
[9] = NCI-H292 cells, drug in cholesterol-free media with simvastatin 0.04 μM
[10] = NCI-H292 cells, drug in complete media
[11] = complete media vs cholesterol-free media + simvastatin (0.04 μM), >0 enhanced anti-cancer activity, about 0 neutral, <0 antagonist
[12] = Complete minus Cholesterol-free, greater than 0 enhanced anti-cancer activity, about 0 neutral, below 0 antagonists
[13] = NCI-H292 cells in cholesterol-free media without statin
[14] = NCI-H292 cells in complete media
[15] = NCI-H292 cells, complete media, cell growth value in FDA drug screen
[16] = complete media minus cholesterol-free media + simvastatin, >0 enhanced anti-cancer activity, about 0 neutral, <0 antagonist
[17] = NCI-H292 cells, cholesterol-free media without statin
[18] = NCI-H292 cells, FDA library drug in cholesterol-free media with simvastatin 0.04 μM
[19] = NCI-H292 cells, FDA library drug in complete media

Q: What does the source list for COc1cccc2c1C(=O)c1c(O)c3c(c(O)c1C2=O)C[C@@](O)(C(=O)CO)C[C@@H]3O[C@H]1C[C@H](N)[C@H](O)[C@H](C)O1 [Doxorubicin (hydrochloride)]?
A: Cholesterol-free [1, 3]: −0.08252; Complete [1, 4]: −0.006007; Difference [1, 5]: 0.08; Cholesterol-free media + simvastatin (0.04 μM) ([2]; NCI-H292 cells, cholesterol-free media with simvastatin 0.04 μM, FDA drug library screen (TABLE 2)): 0.09054; Complete Media ([2]; NCI-H292 cells, complete media, FDA drug library screen (TABLE 2)): 0.01994; Difference ([2]; complete media minus cholesterol-free media + simvastatin (0.04 μM), >0 enhanced anti-cancer activity, about 0 neutral, <0 antagonist): −0.07

Q: How did the Difference [1, 6] turn out when CCO.C[C@H]1c2cccc(O)c2C(O)=C2C(=O)[C@]3(O)C(O)=C(C(N)=O)C(=O)[C@@H](N(C)C)[C@@H]3[C@@H](O)[C@@H]21.C[C@H]1c2cccc(O)c2C(O)=C2C(=O)[C@]3(O)C(O)=C(C(N)=O)C(=O)[C@@H](N(C)C)[C@@H]3[C@@H](O)[C@@H]21.Cl.Cl.O [Doxycycline (hyclate)] was run?
A: −0.15

Q: And the Cholesterol-free [1, 7]?
A: 1.09

Q: And the Complete [1, 8]?
A: 0.9355

Q: What about the “Cholesterol-free media + simvastatin (0.04 μM)” value [2, 9] of the same molecule?
A: 1.074

Q: What about the “Complete Media” value [2, 10] of the same molecule?
A: 0.8852

Q: And the Difference [2, 11]?
A: −0.19

Q: Which Difference [1, 12] does the source give for CCN(CC)CCOC(=O)C(c1ccccc1)C1CCCCC1 (stereo not shown) [Drofenine (hydrochloride)] here?
A: −0.55

Q: What about the Cholesterol-free [1, 13] of the same molecule?
A: 1.437

Q: And the Complete [1, 14]?
A: 0.8908

Q: What about the “Cholesterol-free media + simvastatin (0.04 μM)” value ([2]; NCI-H292 cells, cholesterol-free media with simvastatin 0.04 μM, cell growth value in FDA drug screen) of the same molecule?
A: 1.111

Q: And the “Complete Media” value [2, 15]?
A: 1.144

Q: What about the Difference [2, 16] of the same molecule?
A: 0.03

Q: For CCCCc1oc2ccc(NS(C)(=O)=O)cc2c1C(=O)c1ccc(OCCCN(CCCC)CCCC)cc1 [Dronedarone (Hydrochloride)], which Cholesterol-free [1, 3] is on record?
A: 0.4604

Q: And the Difference [1, 5]?
A: 0.28

Q: And the “Complete Media” value [2, 15]?
A: 0.8231

Q: What about the Difference [2, 16] of the same molecule?
A: 0.06

Q: Which results are given for CCCCc1oc2ccc(NS(C)(=O)=O)cc2c1C(=O)c1ccc(OCCCN(CCCC)CCCC)cc1 [Dronedarone]?
A: Difference [1, 6]: −0.14; Cholesterol-free [1, 7]: 1.006; Complete [1, 8]: 0.8674; Cholesterol-free media + simvastatin (0.04 μM) ([2]; NCI-H292 cells, FDA drug library screen, cholesterol-free media with simvastatin 0.04 μM): 0.4908; Complete Media [2, 8]: 0.8741; Difference [2, 16]: 0.38

Q: How did the Difference ([1]; Complete minus Cholesterol-free, >0 enhanced anti-cancer activity, about 0 neutral, <0 antagonist) turn out when O=C(CCCN1CC=C(n2c(=O)[nH]c3ccccc32)CC1)c1ccc(F)cc1 [Droperidol] was run?
A: −0.22

Q: And the Cholesterol-free [1, 17]?
A: 1.218

Q: What about the Complete ([1]; NCI-H292 cells, complete media) of the same molecule?
A: 1.002

Q: What about the “Cholesterol-free media + simvastatin (0.04 μM)” value [2, 18] of the same molecule?
A: 1.065

Q: What about the “Complete Media” value [2, 19] of the same molecule?
A: 0.7994

Q: And the Difference [2, 11]?
A: −0.27

Q: OCC(O)CN1CCN(c2ccccc2)CC1 (stereo not shown) [Dropropizine] was tested. Which Difference [1, 12] did it give?
A: −0.56

Q: What about the Cholesterol-free [1, 13] of the same molecule?
A: 1.559

Q: What about the Complete [1, 14] of the same molecule?
A: 1

Q: What about the “Cholesterol-free media + simvastatin (0.04 μM)” value [2, 9] of the same molecule?
A: 1.188

Q: What about the “Complete Media” value [2, 10] of the same molecule?
A: 0.9581

Q: And the Difference [2, 11]?
A: −0.23

Q: Which results are given for C[C@]12CCC(=O)C=C1[C@@H]1C[C@@H]1[C@H]1[C@@H]3[C@@H]4C[C@@H]4[C@@]4(CCC(=O)O4)[C@@]3(C)CC[C@@H]12 [Drospirenone]?
A: Cholesterol-free [1, 17]: 1.382; Complete ([1]; NCI-H292 cells, complete media): 1.062; Difference ([1]; complete vs cholesterol-free media, greater than 0 enhanced anti-cancer activity, about 0 neutral, below 0 antagonists): −0.32; Cholesterol-free media + simvastatin (0.04 μM) [2, 9]: 1.4; Complete Media [2, 10]: 1.139; Difference [2, 11]: −0.26

Q: How did the Cholesterol-free [1, 3] turn out when N[C@H](C(=O)O)[C@H](O)c1ccc(O)c(O)c1 [Droxidopa] was run?
A: 0.9972

Q: And the Complete [1, 4]?
A: 1.24

Q: And the Difference [1, 5]?
A: 0.24

Q: And the “Cholesterol-free media + simvastatin (0.04 μM)” value [2, 9]?
A: 1.236

Q: What about the “Complete Media” value [2, 10] of the same molecule?
A: 1.023

Q: And the Difference [2, 11]?
A: −0.21

Q: Which results are given for CNCC[C@H](Oc1cccc2ccccc12)c1cccs1 [Duloxetine (hydrochloride)]?
A: Cholesterol-free [1]: 1.331; Complete [1]: 1.434; Difference [1]: 0.10; Cholesterol-free media + simvastatin (0.04 μM) [2]: 1.089; Complete Media [2]: 1.143; Difference [2]: 0.05

Q: Which Cholesterol-free [1] does the source give for C[C@]12C=CC(=O)N[C@@H]1CC[C@@H]1[C@@H]2CC[C@]2(C)[C@@H](C(=O)Nc3cc(C(F)(F)F)ccc3C(F)(F)F)CC[C@@H]12 [Dutasteride] here?
A: 0.7204

Q: And the Complete [1]?
A: 0.8443

Q: And the Difference [1]?
A: 0.12

Q: And the “Cholesterol-free media + simvastatin (0.04 μM)” value [2]?
A: 1.633

Q: And the “Complete Media” value [2]?
A: 1.205

Q: What about the Difference [2] of the same molecule?
A: −0.43

Q: How did the Difference [1, 12] turn out when C[C@H](Nc1ncnc2nc[nH]c12)c1cc2cccc(Cl)c2c(=O)n1-c1ccccc1 [Duvelisib] was run?
A: −0.51

Q: And the Cholesterol-free [1, 13]?
A: 1.444

Q: And the Complete [1, 14]?
A: 0.9349

Q: And the “Cholesterol-free media + simvastatin (0.04 μM)” value [2, 18]?
A: 1.228

Q: What about the “Complete Media” value [2, 19] of the same molecule?
A: 0.8817

Q: And the Difference [2, 11]?
A: −0.35
